Measured values: the NIST ThermoML archive (doi:10.1016/j.jct.2011.09.003)
± gives the expanded uncertainty stated by the source.

Assays:
[1] = for surface tension liquid-gas: digital tensiometer; for mass density: 101.33 kPa, Liquid, Vibrating tube method
[2] = xn = mol fraction of the nth substance listed; conditions: 298.15 K; for surface tension liquid-gas: digital tensiometer; for mass density: 101 kPa, Liquid, Vibrating tube method

`CCCC[n+]1ccccc1.O=[N+]([O-])[O-]` [1-butylpyridinium nitrate] gave a surface tension liquid-gas ([1]; 293.15 K) of 52.32 ± 0.4 mN/m, a mass density ([1]; 293.15 K) of 1192.7 ± 0.4 kg/m3 and a surface tension liquid-gas ([1]; 298.15 K) of 51.53 ± 0.4 mN/m. For the same compound, the mass density ([1]; 298.15 K) was 1188.5 ± 0.4 kg/m3, the surface tension liquid-gas ([1]; 303.15 K) was 51.21 ± 0.39 mN/m and the mass density ([1]; 303.15 K) was 1185.4 ± 0.4 kg/m3. For the same compound, the surface tension liquid-gas ([1]; 308.15 K) was 50.97 ± 0.39 mN/m, the mass density ([1]; 308.15 K) was 1181.2 ± 0.4 kg/m3 and the surface tension liquid-gas ([1]; 313.15 K) was 50.53 ± 0.39 mN/m. The mass density ([1]; 313.15 K) was 1176.5 ± 0.4 kg/m3, the surface tension liquid-gas ([1]; 318.15 K) was 49.99 ± 0.39 mN/m and the mass density ([1]; 318.15 K) was 1173.5 ± 0.4 kg/m3. For the same compound, the surface tension liquid-gas ([1]; 323.15 K) was 49.53 ± 0.39 mN/m, the mass density ([1]; 323.15 K) was 1169.2 ± 0.4 kg/m3 and the surface tension liquid-gas ([1]; 328.15 K) was 49.3 ± 0.4 mN/m. For the same compound, the mass density ([1]; 328.15 K) was 1165.6 ± 0.4 kg/m3, the surface tension liquid-gas ([1]; 333.15 K) was 48.96 ± 0.39 mN/m and the mass density ([1]; 333.15 K) was 1163.2 ± 0.4 kg/m3. The surface tension liquid-gas ([1]; 338.15 K) was 48.64 ± 0.39 mN/m and the mass density ([1]; 338.15 K) was 1159.4 ± 0.4 kg/m3.
In the case of `CCCC[n+]1ccccc1.O=[N+]([O-])[O-]` [1-butylpyridinium nitrate] + O, the surface tension liquid-gas ([2]; x1 = 0.0097) is reported as 43.71 ± 2.2 mN/m, the surface tension liquid-gas ([2]; x1 = 0.015) is reported as 40.11 ± 0.36 mN/m and the surface tension liquid-gas ([2]; x1 = 0.0359) is reported as 37.59 ± 0.31 mN/m. For the same compound, the surface tension liquid-gas ([2]; x1 = 0.0498) was 37.5 ± 0.3 mN/m, the surface tension liquid-gas ([2]; x1 = 0.0593) was 37.6 ± 0.3 mN/m and the surface tension liquid-gas ([2]; x1 = 0.0816) was 38.02 ± 0.31 mN/m. For the same compound, the surface tension liquid-gas ([2]; x1 = 0.1136) was 40.03 ± 0.31 mN/m, the surface tension liquid-gas ([2]; x1 = 0.2067) was 41.69 ± 0.31 mN/m and the surface tension liquid-gas ([2]; x1 = 0.3247) was 44.01 ± 0.32 mN/m. It also gave a surface tension liquid-gas ([2]; x1 = 0.447) of 46.05 ± 0.33 mN/m, a surface tension liquid-gas ([2]; x1 = 0.633) of 48.01 ± 0.34 mN/m and a surface tension liquid-gas ([2]; x1 = 0.7604) of 49.25 ± 0.36 mN/m. It also gave a surface tension liquid-gas ([2]; x1 = 0.8226) of 49.56 ± 0.37 mN/m, a surface tension liquid-gas ([2]; x1 = 0.9023) of 50.78 ± 0.38 mN/m and a surface tension liquid-gas ([2]; x1 = 1) of 51.53 ± 0.4 mN/m. It also gave a mass density ([2]; x1 = 0.0097) of 1016.3 ± 1.6 kg/m3, a mass density ([2]; x1 = 0.015) of 1024.4 ± 1.3 kg/m3 and a mass density ([2]; x1 = 0.0359) of 1051.1 ± 1.2 kg/m3. It also gave a mass density ([2]; x1 = 0.0498) of 1067 ± 1.1 kg/m3, a mass density ([2]; x1 = 0.0593) of 1076.1 ± 0.8 kg/m3 and a mass density ([2]; x1 = 0.0816) of 1092.6 ± 0.7 kg/m3. For the same compound, the mass density ([2]; x1 = 0.1136) was 1113.6 ± 0.4 kg/m3, the mass density ([2]; x1 = 0.2067) was 1144.7 ± 0.3 kg/m3 and the mass density ([2]; x1 = 0.3247) was 1165.5 ± 0.2 kg/m3. The mass density ([2]; x1 = 0.447) was 1176.9 ± 0.2 kg/m3, the mass density ([2]; x1 = 0.633) was 1182.2 ± 0.3 kg/m3 and the mass density ([2]; x1 = 0.7604) was 1185.3 ± 0.3 kg/m3. The mass density ([2]; x1 = 0.8226) was 1186.6 ± 0.3 kg/m3, the mass density ([2]; x1 = 0.9023) was 1188 ± 0.4 kg/m3 and the mass density ([2]; x1 = 1) was 1188.5 ± 0.4 kg/m3.
Compound `O` [water] + CCCC[n+]1ccccc1.O=[N+]([O-])[O-] has a surface tension liquid-gas ([2]; x2 = 0) of 72.03 ± 0.31 mN/m and a mass density ([2]; x2 = 0) of 1000 ± 0.1 kg/m3.
